One compound from PMC6120666 (The EMBO Journal, 2018) can be followed below.

Common to all, as to test: Drug affinity chromatography with c-ponatinib and LC-MS/MS (ponatinib interactome)
What all share (format): binding

Assay [1] has as its target T1, proteins of U2OS cell lysate (Homo sapiens, UniProt O76071).
T1 construct: Proteins enriched by c-ponatinib from U2OS cell lysate; endogenous in cells; host or cells: U2OS cell lysate
The note with it: CIAO1, Probable cytosolic iron-sulfur protein assembly protein CIAO1. The gist of the method: (§1)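 U2OS cell lysate in NP-40 lysis buffer (2 mg protein per pulldown) was incubated with amine-derivatized NHS beads for 2 h at 4 °C. Bound proteins were washed, eluted with 100 mM formic acid, reduced, alkylated and trypsin-digested, then identified by nano-UPLC–MS/MS on Orbitrap instruments with a 60 min gradient.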

In assay [2] the target is T2, proteins of U2OS cell lysate (Homo sapiens, UniProt O95819).
T2 construct: Proteins enriched by c-ponatinib from U2OS cell lysate; endogenous in cells; host or cells: U2OS cell lysate
The note with it: MAP4K4, Mitogen-activated protein kinase kinase kinase kinase 4. The gist of the method: as §1

For assay [3], the target named is T3, proteins of U2OS cell lysate (Homo sapiens, UniProt P00387).
T3 construct: Proteins enriched by c-ponatinib from U2OS cell lysate; endogenous in cells; host or cells: U2OS cell lysate
The note with it: CYB5R3, NADH-cytochrome b5 reductase 3. Put shortly: as §1

The target in assay [4] is T4, proteins of U2OS cell lysate (Homo sapiens, UniProt P05783).
T4 construct: Proteins enriched by c-ponatinib from U2OS cell lysate; endogenous in cells; host or cells: U2OS cell lysate
The settings on record: KRT18, Keratin, type I cytoskeletal 18. Put shortly: as §1

Assay [5] deals with T5, proteins of U2OS cell lysate (Homo sapiens, UniProt P09496).
T5 construct: Proteins enriched by c-ponatinib from U2OS cell lysate; endogenous in cells; host or cells: U2OS cell lysate
The settings on record: CLTA, Clathrin light chain A. The gist of the method:
as §1

The target of assay [6] is T6, proteins of U2OS cell lysate (Homo sapiens, UniProt P16615).
T6 construct: Proteins enriched by c-ponatinib from U2OS cell lysate; endogenous in cells; host or cells: U2OS cell lysate
The note with it: ATP2A2, Sarcoplasmic/endoplasmic reticulum calcium ATPase 2. The gist of the method:
as §1

In assay [7] the target is T7, proteins of U2OS cell lysate (Homo sapiens, UniProt P21333).
T7 construct: Proteins enriched by c-ponatinib from U2OS cell lysate; endogenous in cells; host or cells: U2OS cell lysate
The note with it: FLNA, Filamin-A. Put shortly: as §1

Assay [8] has as its target T8, proteins of U2OS cell lysate (Homo sapiens, UniProt P27816).
T8 construct: Proteins enriched by c-ponatinib from U2OS cell lysate; endogenous in cells; host or cells: U2OS cell lysate
The note with it: MAP4, Microtubule-associated protein 4. Put shortly: as §1

Assay [9] concerns the target T9, proteins of U2OS cell lysate (Homo sapiens, UniProt P33991).
T9 construct: Proteins enriched by c-ponatinib from U2OS cell lysate; endogenous in cells; host or cells: U2OS cell lysate
The note with it: MCM4, DNA replication licensing factor MCM4. Put shortly: as §1

Assay [10] concerns the target T10, proteins of U2OS cell lysate (Homo sapiens, UniProt P34913).
T10 construct: Proteins enriched by c-ponatinib from U2OS cell lysate; endogenous in cells; host or cells: U2OS cell lysate
The settings on record: EPHX2, Bifunctional epoxide hydrolase 2. The gist of the method:
as §1

The target of assay [11] is T11, proteins of U2OS cell lysate (Homo sapiens, UniProt P43487).
T11 construct: Proteins enriched by c-ponatinib from U2OS cell lysate; endogenous in cells; host or cells: U2OS cell lysate
The settings on record: RANBP1, Ran-specific GTPase-activating protein. Put shortly: as §1

Assay [12] deals with T12, proteins of U2OS cell lysate (Homo sapiens, UniProt P47897).
T12 construct: Proteins enriched by c-ponatinib from U2OS cell lysate; endogenous in cells; host or cells: U2OS cell lysate
The note with it: QARS, Glutamine--tRNA ligase. The gist of the method:
as §1

In assay [13] the target is T13, proteins of U2OS cell lysate (Homo sapiens, UniProt P63104).
T13 construct: Proteins enriched by c-ponatinib from U2OS cell lysate; endogenous in cells; host or cells: U2OS cell lysate
The note with it: YWHAZ, 14-3-3 protein zeta/delta. The gist of the method: as §1

The target of assay [14] is T14, proteins of U2OS cell lysate (Homo sapiens, UniProt P84090).
T14 construct: Proteins enriched by c-ponatinib from U2OS cell lysate; endogenous in cells; host or cells: U2OS cell lysate
The settings on record: ERH, Enhancer of rudimentary homolog. Put shortly: as §1

The target of assay [15] is T15, proteins of U2OS cell lysate (Homo sapiens, UniProt Q00325).
T15 construct: Proteins enriched by c-ponatinib from U2OS cell lysate; endogenous in cells; host or cells: U2OS cell lysate
The note with it: SLC25A3, Phosphate carrier protein, mitochondrial. The gist of the method: as §1

Assay [16] deals with T16, proteins of U2OS cell lysate (Homo sapiens, UniProt Q14566).
T16 construct: Proteins enriched by c-ponatinib from U2OS cell lysate; endogenous in cells; host or cells: U2OS cell lysate
The note with it: MCM6, DNA replication licensing factor MCM6. The gist of the method:
as §1

In assay [17] the target is T17, proteins of U2OS cell lysate (Homo sapiens, UniProt Q14680).
T17 construct: Proteins enriched by c-ponatinib from U2OS cell lysate; endogenous in cells; host or cells: U2OS cell lysate
The note with it: MELK, Maternal embryonic leucine zipper kinase. The gist of the method: as §1

The target in assay [18] is T18, proteins of U2OS cell lysate (Homo sapiens, UniProt Q9NWB6).
T18 construct: Proteins enriched by c-ponatinib from U2OS cell lysate; endogenous in cells; host or cells: U2OS cell lysate
The settings on record: ARGLU1, Arginine and glutamate-rich protein 1. The gist of the method:
as §1

In assay [19] the target is T19, proteins of U2OS cell lysate (Homo sapiens, UniProt Q9Y2D5).
T19 construct: Proteins enriched by c-ponatinib from U2OS cell lysate; endogenous in cells; host or cells: U2OS cell lysate
The settings on record: AKAP2, A-kinase anchor protein 2. The gist of the method:
as §1

T14 sequence (P84090 whole entry): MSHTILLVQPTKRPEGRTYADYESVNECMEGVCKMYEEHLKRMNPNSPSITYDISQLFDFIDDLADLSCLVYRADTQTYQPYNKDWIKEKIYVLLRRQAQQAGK
T11 sequence (P43487 whole entry): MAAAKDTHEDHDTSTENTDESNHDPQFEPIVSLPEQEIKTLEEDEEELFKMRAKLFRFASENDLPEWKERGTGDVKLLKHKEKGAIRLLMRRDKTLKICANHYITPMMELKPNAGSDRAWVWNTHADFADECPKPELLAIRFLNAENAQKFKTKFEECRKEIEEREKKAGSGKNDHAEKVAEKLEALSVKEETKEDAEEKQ
T12 sequence (P47897 whole entry): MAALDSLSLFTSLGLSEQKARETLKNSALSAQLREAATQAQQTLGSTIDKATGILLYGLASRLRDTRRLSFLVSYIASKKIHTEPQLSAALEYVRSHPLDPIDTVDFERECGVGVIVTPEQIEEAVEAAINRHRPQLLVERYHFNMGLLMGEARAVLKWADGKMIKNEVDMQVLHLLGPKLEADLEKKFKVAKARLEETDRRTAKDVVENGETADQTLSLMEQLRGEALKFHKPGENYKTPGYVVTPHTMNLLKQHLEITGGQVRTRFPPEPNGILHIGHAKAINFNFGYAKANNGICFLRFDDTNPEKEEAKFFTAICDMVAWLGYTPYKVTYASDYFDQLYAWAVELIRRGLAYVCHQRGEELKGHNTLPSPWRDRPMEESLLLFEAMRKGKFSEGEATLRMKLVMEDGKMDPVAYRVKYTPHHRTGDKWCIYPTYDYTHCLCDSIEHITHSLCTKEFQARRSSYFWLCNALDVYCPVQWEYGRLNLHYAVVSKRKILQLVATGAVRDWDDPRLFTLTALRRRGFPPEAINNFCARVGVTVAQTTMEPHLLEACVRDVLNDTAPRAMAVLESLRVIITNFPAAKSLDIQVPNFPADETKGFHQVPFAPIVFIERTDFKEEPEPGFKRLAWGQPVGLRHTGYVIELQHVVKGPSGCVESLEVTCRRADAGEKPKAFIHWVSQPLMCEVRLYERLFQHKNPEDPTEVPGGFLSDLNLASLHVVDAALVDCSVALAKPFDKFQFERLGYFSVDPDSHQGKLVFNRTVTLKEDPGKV
T7 sequence (P21333 whole entry): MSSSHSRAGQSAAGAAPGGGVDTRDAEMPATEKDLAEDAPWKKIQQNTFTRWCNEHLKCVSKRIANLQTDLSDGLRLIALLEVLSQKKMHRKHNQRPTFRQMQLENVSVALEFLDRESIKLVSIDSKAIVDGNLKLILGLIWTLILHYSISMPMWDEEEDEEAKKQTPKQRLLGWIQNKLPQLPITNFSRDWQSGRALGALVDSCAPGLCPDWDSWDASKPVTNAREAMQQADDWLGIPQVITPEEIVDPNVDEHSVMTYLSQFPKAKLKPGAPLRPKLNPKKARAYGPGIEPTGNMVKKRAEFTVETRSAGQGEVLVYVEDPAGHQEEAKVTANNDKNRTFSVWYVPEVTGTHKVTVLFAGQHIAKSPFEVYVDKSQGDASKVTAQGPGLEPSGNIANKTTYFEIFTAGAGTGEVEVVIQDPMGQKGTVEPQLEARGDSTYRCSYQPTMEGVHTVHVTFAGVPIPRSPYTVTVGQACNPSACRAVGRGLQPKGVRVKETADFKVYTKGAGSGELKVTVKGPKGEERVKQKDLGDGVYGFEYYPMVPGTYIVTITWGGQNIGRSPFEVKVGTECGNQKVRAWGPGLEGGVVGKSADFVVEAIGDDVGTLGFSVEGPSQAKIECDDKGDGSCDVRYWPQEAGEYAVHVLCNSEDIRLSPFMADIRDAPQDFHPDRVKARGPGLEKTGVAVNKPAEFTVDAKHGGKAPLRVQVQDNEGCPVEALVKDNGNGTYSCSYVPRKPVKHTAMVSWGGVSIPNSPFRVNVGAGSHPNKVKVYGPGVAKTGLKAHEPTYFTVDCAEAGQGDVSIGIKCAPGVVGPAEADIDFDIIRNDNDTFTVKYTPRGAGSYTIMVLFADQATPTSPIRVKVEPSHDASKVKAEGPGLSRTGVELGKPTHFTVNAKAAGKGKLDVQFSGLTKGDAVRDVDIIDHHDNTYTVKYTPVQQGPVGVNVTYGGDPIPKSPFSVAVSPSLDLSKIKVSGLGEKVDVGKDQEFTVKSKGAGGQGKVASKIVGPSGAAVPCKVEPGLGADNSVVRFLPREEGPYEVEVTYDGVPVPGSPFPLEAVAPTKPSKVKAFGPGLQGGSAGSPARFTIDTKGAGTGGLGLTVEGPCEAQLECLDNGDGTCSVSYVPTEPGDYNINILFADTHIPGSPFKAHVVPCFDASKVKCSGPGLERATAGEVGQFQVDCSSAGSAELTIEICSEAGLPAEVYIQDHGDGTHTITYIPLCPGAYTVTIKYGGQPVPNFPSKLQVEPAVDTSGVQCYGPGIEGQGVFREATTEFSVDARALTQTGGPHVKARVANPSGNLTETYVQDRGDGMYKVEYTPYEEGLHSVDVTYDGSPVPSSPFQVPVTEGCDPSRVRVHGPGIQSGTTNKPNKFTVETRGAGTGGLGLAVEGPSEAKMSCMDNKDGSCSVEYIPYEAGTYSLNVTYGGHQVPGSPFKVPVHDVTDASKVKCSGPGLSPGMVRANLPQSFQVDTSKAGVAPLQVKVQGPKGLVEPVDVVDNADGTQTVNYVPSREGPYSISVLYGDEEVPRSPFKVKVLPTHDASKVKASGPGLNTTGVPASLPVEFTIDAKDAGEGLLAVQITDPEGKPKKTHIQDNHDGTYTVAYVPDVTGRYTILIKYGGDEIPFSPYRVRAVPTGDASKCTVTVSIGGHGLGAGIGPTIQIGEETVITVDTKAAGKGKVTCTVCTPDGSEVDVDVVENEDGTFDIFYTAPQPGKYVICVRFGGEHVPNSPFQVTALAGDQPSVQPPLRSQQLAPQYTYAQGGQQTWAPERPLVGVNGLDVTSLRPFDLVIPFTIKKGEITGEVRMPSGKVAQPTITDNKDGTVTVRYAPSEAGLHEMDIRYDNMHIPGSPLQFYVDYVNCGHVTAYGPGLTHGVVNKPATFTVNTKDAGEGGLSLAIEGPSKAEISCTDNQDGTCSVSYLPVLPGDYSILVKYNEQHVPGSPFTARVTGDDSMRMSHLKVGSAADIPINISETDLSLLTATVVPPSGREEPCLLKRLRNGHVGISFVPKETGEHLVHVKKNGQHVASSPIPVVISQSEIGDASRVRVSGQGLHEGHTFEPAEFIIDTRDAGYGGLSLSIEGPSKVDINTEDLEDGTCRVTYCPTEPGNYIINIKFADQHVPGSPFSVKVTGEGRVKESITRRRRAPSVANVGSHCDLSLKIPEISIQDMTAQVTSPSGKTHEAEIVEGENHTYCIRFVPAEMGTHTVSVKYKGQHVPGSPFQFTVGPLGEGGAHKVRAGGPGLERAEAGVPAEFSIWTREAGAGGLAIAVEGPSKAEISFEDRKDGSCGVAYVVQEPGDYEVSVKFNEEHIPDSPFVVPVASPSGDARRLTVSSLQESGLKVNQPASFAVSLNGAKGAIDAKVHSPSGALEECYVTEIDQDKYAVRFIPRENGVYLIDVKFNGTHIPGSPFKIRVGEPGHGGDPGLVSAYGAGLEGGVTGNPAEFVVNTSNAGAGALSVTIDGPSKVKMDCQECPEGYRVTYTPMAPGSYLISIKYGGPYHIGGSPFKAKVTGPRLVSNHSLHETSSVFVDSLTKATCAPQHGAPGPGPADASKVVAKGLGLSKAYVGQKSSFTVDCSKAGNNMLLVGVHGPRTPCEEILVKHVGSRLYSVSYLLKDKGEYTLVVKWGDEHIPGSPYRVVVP
T13 sequence (P63104 whole entry): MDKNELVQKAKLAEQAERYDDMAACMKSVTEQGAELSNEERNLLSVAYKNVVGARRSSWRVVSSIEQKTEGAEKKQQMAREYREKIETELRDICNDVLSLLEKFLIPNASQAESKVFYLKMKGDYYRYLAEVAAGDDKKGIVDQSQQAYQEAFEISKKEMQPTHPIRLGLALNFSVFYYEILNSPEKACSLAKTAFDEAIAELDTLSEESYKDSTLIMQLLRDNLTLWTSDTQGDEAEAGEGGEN
T9 sequence (P33991 whole entry): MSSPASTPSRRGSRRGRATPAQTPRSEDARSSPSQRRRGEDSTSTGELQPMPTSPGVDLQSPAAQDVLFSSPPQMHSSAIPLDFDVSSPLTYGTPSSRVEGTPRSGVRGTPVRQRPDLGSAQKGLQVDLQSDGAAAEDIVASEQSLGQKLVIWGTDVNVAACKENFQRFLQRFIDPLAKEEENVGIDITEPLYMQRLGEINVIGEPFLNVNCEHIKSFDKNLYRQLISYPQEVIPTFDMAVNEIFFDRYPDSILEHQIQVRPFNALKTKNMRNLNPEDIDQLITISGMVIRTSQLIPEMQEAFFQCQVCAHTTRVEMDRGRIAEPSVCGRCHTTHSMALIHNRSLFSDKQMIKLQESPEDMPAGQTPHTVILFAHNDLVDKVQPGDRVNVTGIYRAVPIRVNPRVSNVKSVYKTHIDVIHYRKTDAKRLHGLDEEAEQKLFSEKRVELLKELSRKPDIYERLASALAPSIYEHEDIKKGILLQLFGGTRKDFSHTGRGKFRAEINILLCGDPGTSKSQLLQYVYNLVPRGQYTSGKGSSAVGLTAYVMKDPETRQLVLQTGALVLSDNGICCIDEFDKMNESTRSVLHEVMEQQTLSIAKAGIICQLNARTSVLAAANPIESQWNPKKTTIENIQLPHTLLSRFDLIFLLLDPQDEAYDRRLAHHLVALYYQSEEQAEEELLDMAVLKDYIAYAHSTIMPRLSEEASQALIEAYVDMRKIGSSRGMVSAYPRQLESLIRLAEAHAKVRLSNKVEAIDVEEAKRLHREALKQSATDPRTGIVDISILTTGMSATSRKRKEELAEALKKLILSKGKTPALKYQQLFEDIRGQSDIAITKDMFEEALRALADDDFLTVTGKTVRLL

Consider `Cc1ccc(C(=O)Nc2ccc(CN3CCN(C)CC3)c(C(F)(F)F)c2)cc1C#Cc1cnc2cccnn12` [PON], for which the “Average LFQ PON_WT” value was found to be 21.1391 in assay [1]; 26.8473 in assay [2]; 20.8184 in assay [3]; 23.283 in [4]; 24.9334 in assay [5]; 20.9825 in assay [6]. The “Average LFQ PON_WT” value was found to be 25.7064 in assay [7]; 23.7532 in assay [8]; 19.8468 in assay [9]; 24.5257 in [10]; 20.4588 in assay [11]; 19.3053 in [12]. Besides, the “Average LFQ PON_WT” value in assay [13] is 24.9214; in assay [14], 21.4936; in assay [15], 23.3948; in assay [16], 19.2204; in assay [17] it was 24.1941; in [18] it was 21.1214. Moreover, the “Average LFQ PON_WT” value in [19] came to 19.1683.
